Test results published in patent publication US8507544B2, “Bi-aryl amide compounds as CRTh2 receptor modulators” (Astrazeneca AB, priority 2007, dated 2013).
Structures can show the parent of a compound that is named as a salt.

Columns and labels:
[1] = Water uptake by GVS (gravimetric vapour sorption); type: physicochemical; conditions: between RH of 0% -80%, as measured by GVS
Experimental: • XRPD data were collected using either a PANalytical CubiX PRO machine or a Philips X-Pert MPD machine. • XRPD—PANalytical CubiX PRO • Data was collected with a PANalytical CubiX PRO machine in θ-θ configuration over the scan range 2° to 40° 2θ with 100-second exposure per 0.02° increment. The X-rays were generated by a copper long-fine focus tube operated at 45 kV and 40 mA. The wavelength of the copper X-rays was 1.5418 Å. The data was collected on zero background holders on which ˜2 mg of the compound was placed. The holder was made from a single crystal of silicon, which had been cut along a non-diffracting plane and then polished on an optically flat finish. […] The X-rays incident upon this surface were negated by Bragg extinction. • DSC thermograms were measured using a TA Q1000 Differential Scanning Calorimeter, with aluminium pans and pierced lids. […] The procedure was carried out under a flow of nitrogen gas (50 ml/min) and the temperature studied from 25 to 300° C. at a constant rate of temperature increase of 10° C. per minute. • GVS profiles were measured using a Dynamic Vapour Sorption DVS-1 instrument. The solid sample ca. 1-5 mg was placed into a glass vessel and the weight of the sample was recorded during a dual cycle step method (40 to 90 to 0 to 90 to 0% relative humidity (RH), in steps of 10% RH).

rhCRTh2 = molecular target: T1, rhCRTh2 (Homo sapiens, UniProt Q9Y5Y4); assay: Ligand binding assay ([3H]PGD2, SPA, HEK cell membranes); conditions: [3H]PGD2 binding to HEK cell membranes containing CRTh2, RT 2 hours
T1 construct: expressed in transfected cells; host or cells: HEK cells (membrane preparation)
T1 sequence (Q9Y5Y4 1-395): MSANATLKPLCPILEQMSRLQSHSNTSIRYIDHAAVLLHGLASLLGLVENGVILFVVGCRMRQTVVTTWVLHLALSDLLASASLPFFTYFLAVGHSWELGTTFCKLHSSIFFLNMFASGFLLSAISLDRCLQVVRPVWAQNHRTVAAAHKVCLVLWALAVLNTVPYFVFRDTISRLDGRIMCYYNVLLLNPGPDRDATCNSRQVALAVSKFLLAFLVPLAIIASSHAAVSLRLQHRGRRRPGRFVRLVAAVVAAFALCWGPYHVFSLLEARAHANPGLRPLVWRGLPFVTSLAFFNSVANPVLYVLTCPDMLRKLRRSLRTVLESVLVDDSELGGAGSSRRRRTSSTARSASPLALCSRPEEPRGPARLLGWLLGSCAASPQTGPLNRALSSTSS
Experimental: HEK cells expressing rhCRTh2/Gα16 were routinely maintained in DMEM containing 10% Foetal Bovine Serum (HyClone), 1 mg/ml geneticin, 2 mM L-glutamine and 1% non-essential amino acids. For the preparation of membranes, the adherent transfected HEKcells were grown to confluence in two layer tissue culture factories (Fisher, catalogue number TKT-170-[MUT]). Maximal levels of receptor expression were induced by addition of 500 mM sodium butyrate for the last 18 hours of culture. The adherent cells were washed once with phosphate buffered saline (PBS, 50 ml per cell factory) and detached by the addition of 50 ml per cell factory of ice-cold membrane homogenisation buffer [20 mM HEPES (pH 7.4), 01. mM dithiothreitol, 1 mM EDTA, 0.1 mM phenyl methyl sulphonyl fluoride and 100 μg/ml bacitracin]. […] The final pellet was re-suspended in 4 ml of membrane homogenisation buffer per cell factory used and the protein content determined. […] (The optimum coating concentrations were determined for each batch of membranes) The beads were pelleted by centrifugation (800×g for 7 minutes at 4° C.), washed once with assay buffer (50 mM HEPES pH 7.4 containing 5 mM magnesium chloride) and finally re-suspended in assay buffer at a bead concentration of 10 mg/ml. […] The assay plate was incubated at RT for 2 hours and counted on a Wallac Microbeta liquid scintillation counter (1 minute per well).

human hepatocytes = assay: Determination of metabolic intrinsic clearance (CLint) using human hepatocytes; type: in vitro ADME; conditions: 1 μM substrate, 37° C., n=3
Experimental: Compound stocks were prepared in dimethyl sulfoxide at 100-fold incubation concentration (100 μM). 10 μl of this 100 μM stock was added to a vial containing 490 μl of hepatocyte suspension buffer (without serum). A vial containing either human hepatocytes at a concentration of 2 million viable cells/ml was pre-incubated for 5 min in a shaking (80 oscillations/min) water bath at 37° C. along with the vial containing the drug/buffer mix.
Reactions were initiated by adding 500 μl of hepatocyte suspension to the 500 μl of drug/buffer mix (giving a final substrate concentration of 1 μM at 1% v/v dimethyl sulfoxide). Aliquots (40 μl) were removed at 5, 15, 30, 45, 60, 75 90 & 120 min and reactions were quenched in 80 μl of ice-cold methanol. Samples were subsequently frozen for 1 h at −20° C. and then centrifuged at 2000 g for 20 min at 4° C. The supernatants were removed and analysed by MS/MS and Clint was estimated from the slope of a natural Log of MS/MS response versus time plot. Using physiological scaling factors to account for hepatocellularity and liver weight in the human (Ito and Houston, 2004) hepatic blood clearance was predicted (Clh) using the method outlined by Riley et al., 2005. Typical acid drugs showing an intrinsic clearance value in this assay of <2 μl/min/e^6 cells show robust half lives in man consistent with a once-daily dose intervals. […]

C[C@H](Oc1ccc(F)cc1-c1ccc(C(=O)N2CCCC2(C)C)c(Cl)c1)C(=O)O [Example 4, (2S)-2-({3′-chloro-4′-[(2,2-dimethylpyrrolidin-1-yl)carbonyl]-5-fluorobiphenyl-2-yl}oxy)propanoic acid crystaline free acid]
water uptake ([1]; listed as example 4 polymorph A): 0.7%

C[C@H](Oc1ccc(F)cc1-c1ccc(C(=O)N2CCCC2(C)C)c(Cl)c1)C(=O)O [Example 2, (2S)-2-({3′-chloro-4′-[(2,2-dimethylpyrrolidin-1-yl)carbonyl]-5-fluorobiphenyl-2-yl}oxy)propanoic acid 2-methylpropan-2-amine salt]
water uptake ([1]; listed as example 2 polymorph A): 0.6%

C[C@H](Oc1ccc(F)cc1-c1ccc(C(=O)N2CCCC2(C)C)c(Cl)c1)C(=O)O [Example 1, (2S)-2-({3′-chloro-4′-[(2,2-dimethylpyrrolidin-1-yl)carbonyl]-5-fluorobiphenyl-2-yl}oxy)propanoic acid]
pIC50 (rhCRTh2): 8.4 | Clint (human hepatocytes): < 1 μl/min/e^6
